In patent US11952593B2, “Detection and treatment of daughter number variations in cancer cells” (PharmacoGenetics Limited, priority 2020, dated 2024):

Assays:
[1] = system: A549 lung adenocarcinoma cells; test: Time-lapse microscopy count of multi-daughter divisions (DNV frequency), A549; type: cell-based, human; conditions: wogonin 50 μM, 5-FU 20 μM
Protocol: To investigate DNVs, the human HepG2 hepatocellular carcinoma, HeLa cervical adenocarcinoma, and A549 lung adenocarcinoma cell lines, as well as the non-cancerous RPE1 line of hTRET-immortalized retina epithelial cells, were obtained from the American Type Culture Collection (ATCC, Manassas, Va., USA) and cultivated in Dulbecco's Modified Eagle Medium (DMEM) supplemented with 10% fetal bovine serum (Gemini Bio-Products, Sacramento. Calif.) under a humidified atmosphere of 5% C02 at 37° C. After 24 hours, the old medium was replaced by acidic DMEM growth medium buffered by 15 mM 2-(N-morpholino)-ethanesulfonic acid.HCl (MES) at pH 6.4, neutral DMEM growth medium buffered by 15 mM 3-(N-morpholino)propanesulfonic acid.HCl (MOPS) at pH 7.4, alkaline growth medium buffered by 15 mM tris(hydroxymethyl)aminomethane.HCl (Tris) at pH 8.4, or neutral DMEM growth medium containing wogonin (50 μM) or 5-FU (20 μM). Using phase contrast microscopy, time-lapse photographs were recorded at different positions of the wells at 15-minute intervals for 24 hours using the Nikon ECLIPSE Ti Live Cell Imaging Observatory, enabling the count of P1 through P8 patterns at the end of Stage 2 of the DNV process (FIG. 1). All the images were photographed at 100× magnification. Altemately, using fluorescence microscopy, the cells were seeded into 12 well plates at 1×10^3 per well and stained with Hoechst 33342 ([…], Thermofisher) for 30 minutes in an incubator at 37° C. After 30 minutes, culture medium was replaced by various treatment media and placed under the Nikon ECLIPSE Ti Live Cell Imaging Observatory for 24 hours. For the HeLa, HepG2 and A549 cells, the various treatments were also extended to 5 days. Because the RPE1 cells yielded no DNVs after 24 hours of drug treatment, its treatment periods were not extended beyond 24 hours. All the cells were manually traced and quantified using the ImageJ software. DNV frequencies were estimated by dividing the total number of multi-daughter ([…]) divisions by the total number of cell divisions. Fluorescence staining and time-lapse microscopy were employed to differentiate between the bi-, tri-, tetra- and penta-daughter cell divisions, and to estimate the percentages of the P1 through P8 patterns in the final daughter cells generated by each of the DNV events. GraphPad Prism 5.0 software was employed for statistical analysis, and the results were presented as the mean. Significance was determined using the Student t-test (two-tailed, unpaired/unequal variances).

[2] = system: A549 cells; test: Daughter-cell subgroups P1 through P8 in mitoses with DNV, A549; type: cell-based, human; conditions: A549, 24 hours, wogonin 50 μM, 5-FU 20 μM
Description: “Daughter Number Variation” is a process that occurs during mitosis, where more than two daughter cells are produced per mitotic division. It is a two-stage process, wherein cell divisions of mono-nucleate, bi-nucleate, tri-nucleate and tetra-nucleate mother cells at Stage 1 produce subgroups of single mono-nucleate cells (herein referred to as P1), and subgroups containing one bi-nucleate cell and two mono-nucleate cells (herein referred to as P2). Stage 1 is followed by Stage 2, during which time some of the daughter cells from Stage 1 fuse to produce multi-nucleate cell subgroups, where the different subgroups differ with respect to the number of constituent cells and their nucleate status (herein referred to as P3 through P8). All the subgroups from a single DNV mitosis stay close to one another to form a distinct cluster when the cell culture is not overly dense with cells.
P1 subgroup cells are daughter mono-nucleate cells resulting from mitoses with DNV that have not undergone any post-mitotic cell fusion. P2 subgroup daughter cells are clusters of one bi-nucleate cell and two mono-nucleate cells, which also have not undergone any post-mitotic cell fusion during DNV, whereas each of the multi-nucleated subgroups contains at least one cell that is generated from post-mitotic fusions between the Stage 1 cells. P3 through P8 are daughter cell subgroups, which result from cell fusions during DNV, and wherein each subgroup includes at least one multinucleate cell.
By way of example and not of limitation, there is at least one multinucleate cell with two nuclei in P3 and P5, one multinucleate cell with three nuclei in P4 and P6, one multinucleate cell with four nuclei in P7, and one multinucleate cell with five nuclei in P8, sharing the same cytoplasm. More specifically, P3 cell subgroups are clusters of one multinucleate cell with two nuclei and one mononucleate cell, P4 cell subgroups are one multinucleate cell with three nuclei, P5 cell subgroups are clusters of either two multinucleate cells with two nuclei or one multinucleate cell with two nuclei and one binucleate cell, P6 cell subgroups are clusters of one multinucleate cell with three nuclei and one mononucleate cell, P7 cell subgroups are one multinucleate cell with four nuclei, and P8 cell subgroups are one multinucleate cell with five nuclei. P1 through P8 cell subgroups are depicted in detail in FIG. 2.
The counts of P1 and P2 subgroups of cancer cells are then used to obtain their proportions based on the total number of cell subgroups P1 through P8 that resulted from mitotic DNVs during the predetermined period of time. The proportions are typically expressed as percentages. The proportion of P1 subgroup of cells is calculated as (number of P1 subgroups)+(total number of daughter cell subgroups)×100%, and the proportion of (P1 and P2) subgroup is calculated as (number of P1 subgroups+number of P2 subgroups)+(total number of daughter cell subgroups)×100%. This can also be expressed as (number of P1 subgroups)+(total number of P1 through P8 subgroups)×100%, or (number of P1 subgroups+number of P2 subgroups)+(total number of P1 through P8 subgroups)×100%, respectively.
To investigate DNVs, the human HepG2 hepatocellular carcinoma, HeLa cervical adenocarcinoma, and A549 lung adenocarcinoma cell lines, as well as the non-cancerous RPE1 line of hTRET-immortalized retina epithelial cells, were obtained from the American Type Culture Collection (ATCC, Manassas, Va., USA) and cultivated in Dulbecco's Modified Eagle Medium (DMEM) supplemented with 10% fetal bovine serum (Gemini Bio-Products, Sacramento. Calif.) under a humidified atmosphere of 5% C02 at 37° C. […]

SMILES | Bi-daughter divisions, % of total divisions ([1]; A549, 24 hours) | Bi-daughter divisions, number ([1]; A549, 24 hours) | Sum of Multi-daughter Divisions, % of total mitotic divisions ([1]; A549, 24 hours) | Sum of Multi-daughter Divisions, number ([1]; A549, 24 hours) | Total number of observed divisions ([1]; A549, 24 hours) | Tri-daughter divisions, % of total divisions ([1]; A549, 24 hours) | Tri-daughter divisions, number ([1]; A549, 24 hours) | Bi-daughter divisions, % of total divisions ([1]; A549, 5 days) | Bi-daughter divisions, number ([1]; A549, 5 days) | Sum of Multi-daughter Divisions, % of total mitotic divisions ([1]; A549, 5 days) | Sum of Multi-daughter Divisions, number ([1]; A549, 5 days) | Tetra-daughter divisions, number ([1]; A549, 5 days) | Total Divisions ([1]; A549, 5 days) | Tri-daughter divisions, % of total divisions ([1]; A549, 5 days) | Tri-daughter divisions, number ([1]; A549, 5 days) | ≥Tetra-daughter divisions, number ([1]; A549, 5 days) | Mitoses with DNV, number [2] | P1 + P2 subgroups, number [2] | P1 subgroups, number [2] | P2 subgroups, number [2] | other results
O=c1[nH]cc(F)c(=O)[nH]1 [5-FU, 5-flurouracil] | 99.9% | 2205 | 0.13% | 3 | 2208 (100) | 0.13% | 3 | 97% | 259 | 3.0% | 8 | 0 | 267 (100) | 3% | 8 | 0 | 3 | 3 | 3 | 0 | P3 subgroups, number [2]: 0; P4 subgroups, number [2]: 0; P5 subgroups, number [2]: 0; P6 subgroups, number [2]: 0; P7 subgroups, number [2]: 0; P8 subgroups, number [2]: 0
COc1c(O)cc(O)c2c(=O)cc(-c3ccccc3)oc12 [Wogonin, wogonin] | 99.6% | 1986 | 0.3% | 6 | 1992 (100) | 0.30% | 6 | 94.6% | 230 | 5.3% | 13 | 6 | 243 (100) | 2.8% | 7 | 0 | 7 | 4 | 4 | 0 | Sum of Multi-daughter Divisions, % of total mitotic divisions ([1]; A549, 24 hours, listed as wogonin): 0.30%; Tetra-daughter divisions, % of total divisions ([1]; A549, 5 days): 2.4%; P1 + P2 subgroups, % of all P1 through P8 subgroups [2]: (57.1) %; P1 subgroups, % of all P1 through P8 subgroups [2]: (57.1) %; P3 subgroups, % of all P1 through P8 subgroups [2]: (42.8) %; P3 subgroups, number [2]: 3; P4 subgroups, number [2]: 0; P5 subgroups, number [2]: 0; P6 subgroups, number [2]: 0; P7 subgroups, number [2]: 0; P8 subgroups, number [2]: 0; P1 + P2 subgroups, % of all P1 through P8 subgroups ([2]; listed as wogonin): 57.1%; P1 subgroups, % of all P1 through P8 subgroups ([2]; listed as wogonin): 57.1%
